Biological target: T1, CsSWEET17 (Citrus sinensis, UniProt A0ACB8I933)
T1 construct: gene KPL71_027705; full-length CDS (705 bp, about 235 residues) in pDR196, expressed in Saccharomyces cerevisiae CSY4000 (W303 for esculin); seven TMs
Assay: […]-sucrose uptake in CSY4000 yeast, nonlinear Michaelis-Menten fit
Assay type: cell-based
Conditions: pH 5.5; 30 °C; proton-coupled transport; labelled compound

T1 sequence (A0ACB8I933 entry or part of it): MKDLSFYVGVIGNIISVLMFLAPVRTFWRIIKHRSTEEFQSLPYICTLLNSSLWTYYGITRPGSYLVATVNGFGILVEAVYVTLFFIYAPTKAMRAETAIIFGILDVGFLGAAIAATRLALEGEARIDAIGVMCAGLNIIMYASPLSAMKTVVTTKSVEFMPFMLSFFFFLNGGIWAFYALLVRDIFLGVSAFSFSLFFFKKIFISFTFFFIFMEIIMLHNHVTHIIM

OC[C@H]1O[C@@](CO)(O[C@H]2O[C@H](CO)[C@@H](O)[C@H](O)[C@H]2O)[C@@H](O)[C@@H]1O [sucrose]
Km: 291 µM
